Earlier results as cited in patent publication US20240122955A1, “ORAL DELIVERY” (GUANGZHOU DAZHOU BIOMEDICINE LTD., priority 2021, published 2024).

Tests used:
SGLT2 = molecular target: T1, SGLT2 (Homo sapiens, UniProt P31639); conditions: among the three FDA approved drugs canagliflozin, dapagliflozin, empagliflozin
T1 sequence (P31639 1-672): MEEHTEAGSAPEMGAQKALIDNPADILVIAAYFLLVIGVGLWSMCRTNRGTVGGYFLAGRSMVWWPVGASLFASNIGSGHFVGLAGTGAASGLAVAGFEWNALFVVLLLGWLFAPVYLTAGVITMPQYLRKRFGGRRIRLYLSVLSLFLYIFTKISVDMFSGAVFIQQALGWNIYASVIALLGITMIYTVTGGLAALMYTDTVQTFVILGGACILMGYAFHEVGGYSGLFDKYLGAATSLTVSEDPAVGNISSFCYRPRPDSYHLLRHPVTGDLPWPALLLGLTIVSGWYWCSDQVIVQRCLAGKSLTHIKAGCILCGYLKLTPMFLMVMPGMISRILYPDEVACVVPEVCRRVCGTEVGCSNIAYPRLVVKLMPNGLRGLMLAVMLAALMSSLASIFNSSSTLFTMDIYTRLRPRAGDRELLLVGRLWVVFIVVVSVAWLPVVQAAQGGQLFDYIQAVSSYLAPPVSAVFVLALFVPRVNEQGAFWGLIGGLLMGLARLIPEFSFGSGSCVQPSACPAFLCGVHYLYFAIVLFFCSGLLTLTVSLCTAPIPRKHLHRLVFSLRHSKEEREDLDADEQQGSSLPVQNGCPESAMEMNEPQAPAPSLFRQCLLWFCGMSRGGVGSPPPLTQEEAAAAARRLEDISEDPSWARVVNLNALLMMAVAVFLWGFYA

[1] = T2D patients with high risk of cardiovascular disease events, versus the placebo group

Row | SMILES | selectivity for SGLT2 compared to SGLT1 (SGLT2) | relative risk reduction in death from cardiovascular causes [1]
1 | Cc1ccc([C@@H]2O[C@H](CO)[C@@H](O)[C@H](O)[C@H]2O)cc1Cc1ccc(-c2ccc(F)cc2)s1 [canagliflozin] | least selective | 
2 | OCC1O[C@@H](c2ccc(Cl)c(Cc3ccc(O[C@@H]4CCOC4)cc3)c2)C(O)C(O)[C@@H]1O (stereo partly drawn) [empagliflozin] | greatest selectivity | 38%
